Source: patent publication US20250092056A1, “URACIL DERIVATIVES HAVING VIRUS REPLICATION INHIBITORY ACTIVITY AND PHARMACEUTICAL COMPOSITION COMPRISING THE SAME” (Shionogi & Co., Ltd., priority 2022, published 2025)
Where two headings read alike, the source gives them in different places.

Tests used:
[1] = target: Recombinant SARS-CoV-2 3CL Protease (Severe acute respiratory syndrome coronavirus 2 (2019-nCoV) (SARS-CoV-2), UniProt P0DTD1); test: biochemical; format: biochemical; details: 50% SARS-CoV-2 3CL protease inhibitory concentration; read-out: IC50
SARS-CoV-2 = test: Cytopathic effect (CPE) suppression effect confirmation test using HEK293T/ACE2-TMPRSS2 cells; format: cell-based; details: Severe acute respiratory syndrome coronavirus 2, HEK-293T
[2] = 50% SARS-CoV-2 infected cell death inhibitory concentration, HEK293T/ACE2-TMPRSS2 cells, read-out: EC50
[3] = 72 h, read-out: EC50 (50% SARS-CoV-2 infected cell death inhibitory concentration), class, HEK293T/ACE2-TMPRSS2 cells, CPE suppression, CellTiter-Glo 2.0 after 3 days culture
[4] = 72 h, HEK293T/ACE2-TMPRSS2 cells, CPE suppression, CellTiter-Glo 2.0 after 3 days culture, read-out: EC50 (50% SARS-CoV-2 infected cell death inhibitory concentration), class
[5] = 72 h, read-out: EC50 (50% SARS-CoV-2 infected cell death inhibitory concentration), HEK293T/ACE2-TMPRSS2 cells, CPE suppression, CellTiter-Glo 2.0 after 3 days culture

SMILES | IC50 [1] [nM] | EC50 (SARS-CoV-2; [2]) [nM] | EC50 (SARS-CoV-2; [3]) [nM] | EC50 (SARS-CoV-2; [4]) [nM] | EC50 (SARS-CoV-2; [5]) [nM]
N#CCn1c(N2C[C@@H]3C[C@H]2CO3)c(-c2ccc(F)c(F)c2)c(=O)n(-c2cncc(Cl)c2)c1=O [Compound I-320] | < 10 | < 100 | – | – | –
N#CCn1c(N2CC3(CCOC3)C2)c(-c2ccc(F)c(Cl)c2)c(=O)n(-c2cnc3cc(F)ccn23)c1=O [Compound I-147] | < 10 | – | < 100 | – | –
COc1ccc(Oc2c(-c3cccc4ccccc34)c(=O)n(-c3cncc(C)c3)c(=O)n2CC#N)cc1 [Compound I-009] | > 100 | – | 100 to 1000 | – | –
N#CCn1c(N2CC3(C2)CC(F)(F)C3)c(-c2ccc(F)c(Cl)c2)c(=O)n(-c2cncc(OCF)c2)c1=O [Compound I-325] | < 10 | < 100 | – | – | –
N#CCn1c(N2CCC(O)(C(F)(F)F)CC2)c(-c2ccc(F)c(Cl)c2)c(=O)n(-c2cnc3cc(Cl)ccn23)c1=O [Compound I-141] | 10 to 100 | – | – | < 100 | –
Cc1cc(-n2c(=O)c(-c3ccc(F)c(Cl)c3)c(N3CC4(C3)CC(F)(F)C4)n(CC#N)c2=O)cc(=O)[nH]1 [Compound I-163] | < 10 | – | 100 to 1000 | – | –
Cc1cnnc(-n2c(=O)c(-c3ccc(F)c(Cl)c3)c(N3CC4(C3)CC(F)(F)C4)n(CC#N)c2=O)c1 [Compound I-228] | < 10 | < 100 | – | – | –
CC(C)(O)C1CN(c2c(-c3ccc(F)c(Cl)c3)c(=O)n(-c3cncc(Cl)c3)c(=O)n2CC#N)C1 [Compound I-072] | 0.66 | – | – | – | 5.21
N#CCn1c(N2CCC(F)(F)CC2)c(-c2cccc(C#N)c2)c(=O)n(-c2cncc(Cl)c2)c1=O [Compound I-169] | 10 to 100 | – | – | < 100 | –
N#CCn1c(CCC(F)(F)F)c(-c2ccc(F)c(Cl)c2)c(=O)n(-c2cncc(Cl)c2)c1=O [Compound I-324] | < 10 | < 100 | – | – | –
N#CCn1c(N2CC(O)(C(F)F)C2)c(-c2cc(F)c(F)c(Cl)c2)c(=O)n(-c2cncc(Cl)c2)c1=O [Compound I-333] | < 10 | < 100 | – | – | –
N#CCn1c(N2CC(F)(C3CC3)C2)c(-c2ccc(F)c(Cl)c2)c(=O)n(-c2cnc3cc(F)ccn23)c1=O [Compound I-151] | < 10 | – | < 100 | – | –
Cc1cncc(-n2c(=O)c(Cc3cc(F)c(F)c(F)c3)c(N3CC4(CCOC4)C3)n(CC#N)c2=O)c1 [Compound I-101] | < 10 | – | < 100 | – | –
C[C@@](O)(CCc1c(-c2ccc(F)c(Cl)c2)c(=O)n(-c2cncc(C#N)c2)c(=O)n1CC#N)C(F)F (single isomer, unassigned) [Compound I-430] | < 10 | < 100 | – | – | –
Cc1cncc(-n2c(=O)c(-c3ccc(F)c(Cl)c3)c(N3Cc4cccnc4C3)n(CC#N)c2=O)c1 [Compound I-075] | < 10 | – | < 100 | – | –
N#CCn1c(N2CC3(C2)CC(F)(F)C3)c(-c2ccc(F)c(Cl)c2)c(=O)n(-c2cc(OCC(F)F)cnn2)c1=O [Compound I-217] | < 10 | < 100 | – | – | –
Cc1cnc(F)c(-n2c(=O)c(-c3ccc(F)c(Cl)c3)c(N3CC4(C3)CC(F)(F)C4)n(CC#N)c2=O)c1 [Compound I-255] | < 10 | < 100 | – | – | –
C[C@](O)(CCc1c(-c2ccc(F)c(Cl)c2)c(=O)n(-c2cncc(C#N)c2)c(=O)n1CC#N)C(F)F (single isomer, unassigned) [Compound I-429] | < 10 | < 100 | – | – | –
N#CCn1c(N2CCC(C(F)F)CC2)c(-c2ccc(F)c(Cl)c2)c(=O)n(-c2cncc(C#N)c2)c1=O [Compound I-404] | < 10 | < 100 | – | – | –
N#CCn1c(CCC(F)F)c(-c2ccc(F)c(Cl)c2)c(=O)n(-c2cncc(Cl)c2)c1=O [Compound I-350] | < 10 | < 100 | – | – | –
Cc1cc(-n2c(=O)c(-c3ccc(F)c(Cl)c3)c(N3CC4(CCOC4)C3)n(CC#N)c2=O)cnn1 [Compound I-188] | 10 to 100 | – | – | 100 to 1000 | –
Cc1cncc(-n2c(=O)c(-c3ccc(F)c(Cl)c3)c(N3Cc4ccccc4C3=O)n(CC#N)c2=O)c1 [Compound I-023] | < 10 | – | < 100 | – | –
Cc1cncc(-n2c(=O)c(Cc3cc(F)c(F)c(F)c3)c(N3CCC4(CCC(O)C4)C3)n(CC#N)c2=O)c1 (racemic) [Compound I-110] | < 10 | – | < 100 | – | –
CC(C)(F)Cc1c(-c2ccc(F)c(Cl)c2)c(=O)n(-c2cncc(Cl)c2)c(=O)n1CC#N [Compound I-307] | < 10 | < 100 | – | – | –
Cc1cncc(-n2c(=O)c(-c3ccc(F)c(Cl)c3)c(Oc3ccc(F)cc3Cl)n(CC#N)c2=O)c1 [Compound I-030] | < 10 | – | < 100 | – | –
Cc1cncc(-n2c(=O)c(Oc3cc(F)c(F)c(F)c3)c(Oc3cc(F)c(F)c(F)c3)n(CC#N)c2=O)c1 [Compound I-010] | > 100 | – | 1000 to 5000 | – | –

SMILES | IC50 [1] [nM] | EC50 (SARS-CoV-2; [2]) [nM] | EC50 (SARS-CoV-2; [3]) [nM] | EC50 (SARS-CoV-2; [4]) [nM] | EC50 (SARS-CoV-2; [5]) [nM]
Cc1cncc(-n2c(=O)c(Cc3cc(F)c(F)c(F)c3)c(N3CCC4(CCOCC4)C3)n(CC#N)c2=O)c1 [Compound I-111] | < 10 | – | < 100 | – | –
N#CCn1c(N2CC(O)(C(F)(F)F)C2)c(-c2ccc(F)c(F)c2)c(=O)n(-c2cncc(Cl)c2)c1=O [Compound I-317] | < 10 | < 100 | – | – | –
N#CCn1c(C2CCC(F)(F)CC2)c(-c2ccnc(C(F)(F)F)c2)c(=O)n(-c2cncc(Cl)c2)c1=O [Compound I-266] | 10 to 100 | 100 to 1000 | – | – | –
N#CCn1c(N2CC(C(F)(F)F)C2)c(-c2ccc(F)c(Cl)c2)c(=O)n(-c2cncc(OCF)c2)c1=O [Compound I-352] | < 10 | < 100 | – | – | –
C[C@@H](C#N)n1c(N2CC[C@@](O)(C(F)F)C2)c(-c2ccc(F)c(C(F)F)c2)c(=O)n(-c2cncc(C#N)c2)c1=O (single isomer, unassigned) [Compound I-432] | < 10 | < 100 | – | – | –
Cc1cncc(N2C(=O)N(CC#N)CC3(COc4ccc(Cl)cc43)C2=O)c1 (racemic) [Compound I-282] | 2800 | < 100 | – | – | –
Cc1cncc(-n2c(=O)c(Cc3cc(F)c(F)c(F)c3)c(N3CC[C@@H](C(N)=O)C3)n(CC#N)c2=O)c1 [Compound I-096] | < 10 | – | < 100 | – | –
CC(C)(O)Cc1c(-c2ccc(F)c(Cl)c2)c(=O)n(-c2cncc(Cl)c2)c(=O)n1CC#N [Compound I-308] | < 10 | < 100 | – | – | –
Cc1cncc(-n2c(=O)c(-c3ccc(F)c(Cl)c3)c(N3CC(O)(c4ncccn4)C3)n(CC#N)c2=O)n1 [Compound I-337] | < 10 | < 100 | – | – | –
C#CCn1c(C)c(-c2ccc(F)c(Cl)c2)c(=O)n(-c2cncc(Cl)c2)c1=O [Compound I-438] | < 10 | < 100 | – | – | –
N#CCn1c(N2CC3(CCOC3)C2)c(-c2ccccc2)c(=O)n(-c2cncc(Cl)c2)c1=O [Compound I-171] | < 10 | – | < 100 | – | –
N#CCn1c(N2CC(O)(c3ncc(F)cn3)C2)c(-c2ccc(F)c(Cl)c2)c(=O)n(-c2cncc(Cl)c2)c1=O [Compound I-234] | 1.2 | – | – | – | 6.6
Cc1cncc(-n2c(=O)c(Cc3cc(F)c(F)c(F)c3)c(N3CCCC(C(F)(F)F)C3)n(CC#N)c2=O)c1 (racemic) [Compound I-097] | < 10 | – | < 100 | – | –
Cc1cncc(-n2c(=O)c(Cc3cc(F)c(F)c(F)c3)c(-c3ccc(C)c(C)c3)n(C(F)C#N)c2=O)c1 (racemic) [Compound I-048] | > 100 | – | 1000 to 5000 | – | –
CC1(C)CN(c2c(-c3cccc(C#N)c3)c(=O)n(-c3cncc(Cl)c3)c(=O)n2CC#N)C1 [Compound I-175] | < 10 | – | < 100 | – | –
N#CCn1c(N2CC(F)(C3CC3)C2)c(-c2ccc(F)c(Cl)c2)c(=O)n(-c2cncc(C#N)c2)c1=O [Compound I-338] | < 10 | < 100 | – | – | –
Cc1cncc(-n2c(=O)c(-c3cc(F)c(F)c(F)c3)c(/C=C/C(C)(C)O)n(CC#N)c2=O)c1 [Compound I-291] | 10 to 100 | < 100 | – | – | –
N#CCn1c(N2CC(C(F)(F)F)C2)c(-c2ccc(F)c(Cl)c2)c(=O)n(-c2cncc(C#N)c2)c1=O [Compound I-310] | < 10 | < 100 | – | – | –
CN1CCN(c2c(-c3ccc(F)c(Cl)c3)c(=O)n(-c3cncc(Cl)c3)c(=O)n2CC#N)C1=O [Compound I-244] | 10 to 100 | < 100 | – | – | –
Cc1ccc(-c2c(-c3ccc(F)c(Cl)c3)c(=O)n(-c3cncc(C)c3)c(=O)n2CC#N)cc1 [Compound I-270] | < 10 | < 100 | – | – | –
N#CCn1c(N2Cc3ccccc3C2)c(Cc2cc(F)c(F)c(F)c2)c(=O)n(C2CCNC(=O)C2)c1=O (racemic) [Compound I-155] | > 100 | – | 1000 to 5000 | – | –
CNc1cnnc(-n2c(=O)c(-c3ccc(F)c(Cl)c3)c(N3CC4(C3)CC(F)(F)C4)n(CC#N)c2=O)c1 [Compound I-218] | < 10 | 1000 to 5000 | – | – | –
N#CCn1c(N2CC3(CCOC3)C2)c(-c2ccc(F)c(Cl)c2)c(=O)n(-c2cncc(Cl)n2)c1=O [Compound I-191] | < 10 | – | < 100 | – | –
N#CCn1c(N2CC(O)(C(F)(F)F)C2)c(-c2ccc(F)c(C#N)c2)c(=O)n(-c2cncc(Cl)c2)c1=O [Compound I-373] | < 10 | < 100 | – | – | –
Cc1cncc(-n2c(=O)c(-c3ccc(F)c(Cl)c3)c(N3CC4(C3)CC(F)(F)C4)n(CC#N)c2=O)c1 [Compound I-073] | < 10 | – | < 100 | – | –
